Source: PubChem BioAssay AID330 (DTP/NCI, 2004)
“And” between values parts separate entries of the source, which are not always exact repeats. Equal entries are not always repeated. Toxic doses and inconclusive results are not listed. How the source made its calls: active means survival T/C of 150% or more; inactive means T/C below 125% in these data.

System: P388 leukemia ip, CD2F1 mice, survival T/C
Assay: NCI In Vivo Anticancer Drug Screen. Data for tumor model P388 Leukemia (intraperitoneal) in CD2F1 (CDF1) mice
Conditions: endpoint: median survival time, higher = longer survival
How it was run: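 Mice carrying the transplanted tumor received test compound or vehicle. Survival was recorded in each group, and the value is the treated-group measurement divided by that of the vehicle-treated control group.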

[1] = dose: 60.0 mg/kg/injection, schedule: Q01DX005 (ip), vehicle: saline with Tween-80
[2] = dose: 120.0 mg/kg/injection, schedule: Q01DX005 (ip), vehicle: saline with Tween-80
[3] = dose: 240.0 mg/kg/injection, schedule: Q01DX005 (ip), vehicle: saline with Tween-80
[4] = dose: 50.0 mg/kg/injection, schedule: Q01DX005 (ip), vehicle: Klucel (hydroxypropylcellulose) (HPC)
[5] = dose: 200.0 mg/kg/injection, schedule: Q01DX001 (ip), vehicle: saline with Tween-80
[6] = dose: 400.0 mg/kg/injection, schedule: Q01DX001 (ip), vehicle: saline with Tween-80
[7] = dose: 50.0 mg/kg/injection, schedule: Q01DX009 (ip), vehicle: saline with Tween-80
[8] = dose: 12.5 mg/kg/injection, schedule: Q01DX009 (ip), vehicle: saline with Tween-80
[9] = dose: 25.0 mg/kg/injection, schedule: Q01DX009 (ip), vehicle: saline with Tween-80
[10] = dose: 50.0 mg/kg/injection, schedule: Q01DX009 (ip), vehicle: saline
[11] = dose: 100.0 mg/kg/injection, schedule: Q01DX009 (ip), vehicle: saline
[12] = dose: 200.0 mg/kg/injection, schedule: Q01DX009 (ip), vehicle: saline
[13] = dose: 12.5 mg/kg/injection, schedule: Q01DX005 (ip), vehicle: Klucel (hydroxypropylcellulose) (HPC)
[14] = dose: 60.0 mg/kg/injection, schedule: Q01DX005 (ip), vehicle: Klucel (hydroxypropylcellulose) (HPC)

Measured: T/C

Cc1cc(=O)oc2c1ccc1occc(=O)c12
inactive: [1] 96 % of control | [2] 102 % of control | [3] 100 % of control

O=C(O)C(C1CCCCC1)C1(O)CCCCCC1 (stereo unspecified)
inactive: [4] 97 % of control | dose: 100.0 mg/kg/injection, schedule: Q01DX005 (ip), vehicle: Klucel (hydroxypropylcellulose) (HPC) 103 % of control | dose: 200.0 mg/kg/injection, schedule: Q01DX005 (ip), vehicle: Klucel (hydroxypropylcellulose) (HPC) 100 % of control

Cn1cnc2c1c(=O)n(C(C(N)=O)C(N)=O)c(=O)n2C
inactive: [5] 104 % of control | [6] 101 % of control

C1=C(c2ccccc2)OC(c2ccccc2)=C[P+]1(c1ccccc1)c1ccccc1
inactive: dose: 1.56 mg/kg/injection, schedule: Q01DX005 (ip), vehicle: saline with Tween-80 105 % of control | dose: 3.12 mg/kg/injection, schedule: Q01DX005 (ip), vehicle: saline with Tween-80 120 % of control | dose: 6.25 mg/kg/injection, schedule: Q01DX005 (ip), vehicle: saline with Tween-80 97 % of control

CCOC(=O)C(C)(C)Oc1cccc2c1S(=O)(=O)c1ccccc1-2
inactive: [7] 95 % of control | dose: 100.0 mg/kg/injection, schedule: Q01DX009 (ip), vehicle: saline with Tween-80 93 % of control | dose: 200.0 mg/kg/injection, schedule: Q01DX009 (ip), vehicle: saline with Tween-80 100 % of control

O=C(Oc1cc([N+](=O)[O-])cc([N+](=O)[O-])c1)C(c1ccccc1)c1ccccc1
inactive: [8] 106 % of control | [9] 112 % of control | [7] 118 % of control

O=C(O)CC(NC(=O)CCl)c1cccs1 (stereo unspecified)
inactive: [10] 97 % of control | [11] 94 % of control | [12] 98 % of control

O=c1cc(-c2ccccc2)oc2c(OCc3ccccc3)c(OCc3ccccc3)ccc12
inactive: dose: 100.0 mg/kg/injection, schedule: Q04DX002 (ip), vehicle: saline with Tween-80 100 % of control | dose: 200.0 mg/kg/injection, schedule: Q04DX002 (ip), vehicle: saline with Tween-80 102 % of control | dose: 400.0 mg/kg/injection, schedule: Q04DX002 (ip), vehicle: saline with Tween-80 96 % of control

Cc1cc2c(cc1N)C(C)C1(CCC(=O)N2Cc2ccccc2)OCCO1 (stereo unspecified)
inactive: dose: 50.0 mg/kg/injection, schedule: Q01DX005 (ip), vehicle: saline with Tween-80 96 % of control | dose: 100.0 mg/kg/injection, schedule: Q01DX005 (ip), vehicle: saline with Tween-80 99 % of control | dose: 200.0 mg/kg/injection, schedule: Q01DX005 (ip), vehicle: saline with Tween-80 93 % of control

CCC(O)(C(=O)O)c1cc[n+](Cc2cnc3ccccc3c2)cc1C (stereo unspecified)
inactive: [13] 96 % of control | dose: 25.0 mg/kg/injection, schedule: Q01DX005 (ip), vehicle: Klucel (hydroxypropylcellulose) (HPC) 86 % of control | [4] 100 % of control

CCc1cccc(CC)c1N1C(=O)c2cccnc2C1=O
inactive: [10] 100 % of control | [11] 97 % of control | [12] 93 % of control

COc1cc(C(=O)c2cc3c(cc2C)OCO3)cc(OC)c1OC
inactive: dose: 25.0 mg/kg/injection, schedule: Q01DX009 (ip), vehicle: Klucel (hydroxypropylcellulose) (HPC) 109 % of control | dose: 50.0 mg/kg/injection, schedule: Q01DX009 (ip), vehicle: Klucel (hydroxypropylcellulose) (HPC) 113 % of control

NC1=C(O)C(=O)C(c2ccccc2O)O1 (stereo unspecified)
inactive: dose: 30.0 mg/kg/injection, schedule: Q01DX005 (ip), vehicle: suspension in saline 104 % of control | dose: 60.0 mg/kg/injection, schedule: Q01DX005 (ip), vehicle: suspension in saline 103 % of control | dose: 120.0 mg/kg/injection, schedule: Q01DX005 (ip), vehicle: suspension in saline 89 % of control and 97 % of control | dose: 240.0 mg/kg/injection, schedule: Q01DX005 (ip), vehicle: suspension in saline 88 % of control

O=S(=O)(O)c1cc(O)c2c(N=Cc3ccccc3O)c(S(=O)(=O)O)ccc2c1
inactive: [1] 98 % of control | [2] 97 % of control | [3] 95 % of control

O=C(O)c1ccccc1C(=O)OCc1ccccc1
inactive: dose: 100.0 mg/kg/injection, schedule: Q04DX003 (ip), vehicle: Klucel (hydroxypropylcellulose) (HPC) 100 % of control | dose: 200.0 mg/kg/injection, schedule: Q04DX003 (ip), vehicle: Klucel (hydroxypropylcellulose) (HPC) 100 % of control | dose: 400.0 mg/kg/injection, schedule: Q04DX003 (ip), vehicle: Klucel (hydroxypropylcellulose) (HPC) 97 % of control

O=CC1N=C1c1ccccc1 (stereo unspecified)
inactive: dose: 100.0 mg/kg/injection, schedule: Q01DX001 (ip), vehicle: Klucel (hydroxypropylcellulose) (HPC) 88 % of control | dose: 200.0 mg/kg/injection, schedule: Q01DX001 (ip), vehicle: Klucel (hydroxypropylcellulose) (HPC) 90 % of control

Cc1cc(N)nc2cc(N)ccc12
inactive: dose: 15.0 mg/kg/injection, schedule: Q01DX005 (ip), vehicle: Klucel (hydroxypropylcellulose) (HPC) 89 % of control | dose: 30.0 mg/kg/injection, schedule: Q01DX005 (ip), vehicle: Klucel (hydroxypropylcellulose) (HPC) 99 % of control | [14] 98 % of control

O=C(O)C1C2CC3C(OC(=O)C31)C2Br (stereo unspecified)
inactive: [1] 100 % of control | [2] 97 % of control | [3] 96 % of control

O=C1c2cccc3cc([N+](=O)[O-])cc(c23)C(=O)N1CCNCCNCCNCCN1C(=O)c2cccc3cc([N+](=O)[O-])cc(c23)C1=O
inactive: dose: 5.0 mg/kg/injection, schedule: Q04DX002 (ip), vehicle: saline with Tween-80 107 % of control and 124 % of control | dose: 10.0 mg/kg/injection, schedule: Q04DX002 (ip), vehicle: saline with Tween-80 122 % of control | dose: 80.0 mg/kg/injection, schedule: Q04DX002 (ip), vehicle: saline with Tween-80 122 % of control

CCOC(=O)N1C=CC2Oc3c(Cl)c(Cl)c(Cl)c(Cl)c3OC2C=N1 (stereo unspecified)
inactive: [14] 102 % of control | dose: 120.0 mg/kg/injection, schedule: Q01DX005 (ip), vehicle: Klucel (hydroxypropylcellulose) (HPC) 101 % of control | dose: 240.0 mg/kg/injection, schedule: Q01DX005 (ip), vehicle: Klucel (hydroxypropylcellulose) (HPC) 101 % of control

N=C(N)SCCCCCCCCCCSC(=N)N
inactive: [8] 100 % of control and 90 % of control | [9] 98 % of control and 100 % of control | [7] 106 % of control

Clc1ccc(C=Nc2ccc(N=Cc3ccc(Cl)cc3)cc2)cc1
inactive: dose: 100.0 mg/kg/injection, schedule: Q01DX001 (ip), vehicle: saline with Tween-80 90 % of control | [5] 88 % of control | [6] 87 % of control

COc1ccc([N+](=O)[O-])cc1NC(=O)c1ccc2c(c1)C(=O)OC2=O
inactive: dose: 7.5 mg/kg/injection, schedule: Q01DX005 (ip), vehicle: saline with Tween-80 97 % of control | dose: 15.0 mg/kg/injection, schedule: Q01DX005 (ip), vehicle: saline with Tween-80 87 % of control | dose: 30.0 mg/kg/injection, schedule: Q01DX005 (ip), vehicle: saline with Tween-80 90 % of control and 94 % of control | [1] 89 % of control | [3] 93 % of control

CCCCc1ccc2nccc(N/N=C/c3ccc(OC)c4ccccc34)c2c1
inactive: dose: 3.12 mg/kg/injection, schedule: Q01DX005 (ip), vehicle: Klucel (hydroxypropylcellulose) (HPC) 100 % of control | dose: 6.25 mg/kg/injection, schedule: Q01DX005 (ip), vehicle: Klucel (hydroxypropylcellulose) (HPC) 100 % of control | [13] 93 % of control and 94 % of control | [4] 87 % of control

O=c1[nH]c(N[N+](=O)[O-])nc(-c2ccccc2)c1Br
inactive: [1] 98 % of control | [2] 100 % of control | [3] 99 % of control
